# Assay results from patent US9833497B2, “Human originated EGF domain proteins and use of the same” (CHENGDU SOURCEBIO LIMITED-LIABILITY COMPANY, priority 2013, dated 2017).
# Legend:
# Assay type in all cases: cell-based
# Moraxella catarrhalis = test: MIC against Gram-negative bacteria: Moraxella catarrhalis; conditions: 5×10^5 CFU/mL
# Summary of the method: (§1)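 Read-out is absence of bacterial growth, with MIC set at the lowest recombinant protein concentration achieving it. Bacteria, pre-grown in LB to McFarland 0.5 and resuspended, were exposed at 5×10^5 CFU/mL to two-fold diluted human EGF domain proteins in triplicate at 37° C, 175 rpm.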
# Proteus mirabilis = test: MIC against Gram-negative bacteria: Proteus mirabilis; conditions: 5×10^5 CFU/mL
# Summary of the method: as §1
# Pseudomonas aeruginosa = test: MIC against Gram-negative bacteria: Pseudomonas aeruginosa; conditions: 5×10^5 CFU/mL
# Summary of the method: as §1
# Enterobacter cloacae = test: MIC against Gram-negative bacteria: Enterobacter cloacae; conditions: 5×10^5 CFU/mL
# Summary of the method: as §1
# Aeromonas hydrophila = test: MIC against Gram-negative bacteria: Aeromonas hydrophila; conditions: 5×10^5 CFU/mL
# Summary of the method: as §1
# Klebsiella pneumonia = test: MIC against Gram-negative bacteria: Klebsiella pneumonia; conditions: 5×10^5 CFU/mL
# Summary of the method: as §1
# Proteus vulgaris = test: MIC against Gram-negative bacteria: Proteus vulgaris; conditions: 5×10^5 CFU/mL
# Summary of the method: as §1
# Serratia marcescens = test: MIC against Gram-negative bacteria: Serratia marcescens; conditions: 5×10^5 CFU/mL
# Summary of the method: as §1
# E. coli BL21 = test: MIC against Gram-negative bacteria: E. coli BL21; conditions: 5×10^5 CFU/mL
# Summary of the method: as §1
# Citrobacter diversus = test: MIC against Gram-negative bacteria: Citrobacter diversus; conditions: 5×10^5 CFU/mL
# Summary of the method: as §1
# E. coli DH5α = test: Antibacterial activity: MIC and growth curve against E. coli DH5α in 96-well plate; conditions: minimal inhibitory concentration against E. coli DH5α; 96-well plate, 5×10^5 CFU/mL, 37° C., judged after 8 h
# Summary of the method: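 Log-phase DH5α (OD600 about 0.5, 37° C, 185 rpm in LB) was pelleted, resuspended in fresh LB and seeded at 5×10^5 CFU/mL with recombinant protein at 50, 25 and 12.5 μg/mL (two-fold series), in triplicate. Plates were shaken at 175 rpm, 37° C, and OD600 was read every 30 min. MIC was the lowest concentration with no growth.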
# [1] = Moraxella catarrhalis, 10 h cultivation at 37° C.
# [2] = Proteus mirabilis, 10 h cultivation at 37° C.
# [3] = Pseudomonas aeruginosa, 10 h cultivation at 37° C.
# [4] = Enterobacter cloacae, 10 h cultivation at 37° C.
# [5] = Aeromonas hydrophila, 10 h cultivation at 37° C.
# [6] = Klebsiella pneumonia, 10 h cultivation at 37° C.
# [7] = Proteus vulgaris, 10 h cultivation at 37° C.
# [8] = Serratia marcescens, 10 h cultivation at 37° C.
# [9] = E. coli BL21, 10 h cultivation at 37° C.
# [10] = Citrobacter diversus, 10 h cultivation at 37° C.
Substance,MIC against M. catarrhalis (Moraxella catarrhalis; [1]) [µg/mL],MIC against P. mirabilis (Proteus mirabilis; [2]) [µg/mL],MIC against P. aeruginosa (Pseudomonas aeruginosa; [3]) [µg/mL],MIC against E. cloacae (Enterobacter cloacae; [4]) [µg/mL],MIC against A. hydrophila (Aeromonas hydrophila; [5]) [µg/mL],MIC against K. pneumonia (Klebsiella pneumonia; [6]) [µg/mL],MIC against P. vulgaris (Proteus vulgaris; [7]) [µg/mL],MIC against S. marcescens (Serratia marcescens; [8]) [µg/mL],MIC against E. coli BL21 (E. coli BL21; [9]) [µg/mL],MIC against C. diversus (Citrobacter diversus; [10]) [µg/mL],MIC (E. coli DH5α) [µg/mL],MIC (μg/mL) M. catarrhalis (Moraxella catarrhalis; 10 h cultivation at 37° C.) [µg/mL],MIC (μg/mL) P. mirabilis (Proteus mirabilis; 10 h cultivation at 37° C.) [µg/mL],MIC (μg/mL) P. aeruginosa (Pseudomonas aeruginosa; 10 h cultivation at 37° C.) [µg/mL],MIC (μg/mL) E. cloacae (Enterobacter cloacae; 10 h cultivation at 37° C.) [µg/mL],MIC (μg/mL) A. hydrophila (Aeromonas hydrophila; 10 h cultivation at 37° C.) [µg/mL],MIC (μg/mL) K. pneumonia (Klebsiella pneumonia; 10 h cultivation at 37° C.) [µg/mL],MIC (μg/mL) P. vulgaris (Proteus vulgaris; 10 h cultivation at 37° C.) [µg/mL],MIC (μg/mL) S. marcescens (Serratia marcescens; 10 h cultivation at 37° C.) [µg/mL],MIC (μg/mL) E. coli BL21 (E. coli BL21; [9]) [µg/mL],further results
PRT1346 (EVNECQSNPCLNNAVCEDQVGGFLCKCPPGFLGTRCG; listed as Homo sapiens),12.5,25,50,12.5,50,25,50,25,25,25,12.5,–,–,–,–,–,–,–,–,–,–
PRT822 (VRAGCRHSGGCLNGGLCDPHTGRCLCPAGWTGDKCQ; listed as Homo sapiens),–,–,–,–,–,–,–,–,–,–,12.5,12.5,25,50,50,12.5,12.5,12.5,12.5,25,MIC (μg/mL) C. diversus (Citrobacter diversus; 10 h cultivation at 37° C.): 12.5 µg/mL
PRT1362 (GKPTCPHACHTQGRCEEGQCVCDEGFAGVDCS; listed as Homo sapiens),50,12.5,50,12.5,50,25,12.5,12.5,25,12.5,12.5,–,–,–,–,–,–,–,–,–,–
PRT1246 (CKELCSCHPHGQCEDVTGQCTCHARRWGARCE; listed as Homo sapiens),–,–,–,–,–,–,–,–,–,–,50,–,–,–,–,–,–,–,–,–,"MIC against M. catarrhalis (Moraxella catarrhalis; Moraxella catarrhalis, 96-well plate, 37° C., 10 h): 25 µg/mL; MIC against P. mirabilis (Proteus mirabilis; Proteus mirabilis, 96-well plate, 37° C., 10 h): 50 µg/mL; MIC against P. aeruginosa (Pseudomonas aeruginosa; Pseudomonas aeruginosa, 96-well plate, 37° C., 10 h): 12.5 µg/mL; MIC against E. cloacae (Enterobacter cloacae; Enterobacter cloacae, 96-well plate, 37° C., 10 h): 50 µg/mL; MIC against A. hydrophila (Aeromonas hydrophila; Aeromonas hydrophila, 96-well plate, 37° C., 10 h): 25 µg/mL; MIC against K. pneumonia (Klebsiella pneumonia; Klebsiella pneumonia, 96-well plate, 37° C., 10 h): 25 µg/mL; MIC against P. vulgaris (Proteus vulgaris; Proteus vulgaris, 96-well plate, 37° C., 10 h): 25 µg/mL; MIC against S. marcescens (Serratia marcescens; Serratia marcescens, 96-well plate, 37° C., 10 h): 12.5 µg/mL; MIC against E. coli BL21 (E. coli BL21; E. coli BL21, 96-well plate, 37° C., 10 h): 25 µg/mL; MIC against C. diversus (Citrobacter diversus; Citrobacter diversus, 96-well plate, 37° C., 10 h): 12.5 µg/mL"
PRT504 (CDCSGNVDPSEAGHCDSVTGECLKCLGNTDGAHCERCADGFYGDAVTAKNCRA; listed as Homo sapiens),–,–,–,–,–,–,–,–,–,–,12.5,–,–,–,–,–,–,–,–,–,"MIC against M. catarrhalis (Moraxella catarrhalis; 96-well plate, 37° C., 10 h): 25 µg/mL; MIC against P. mirabilis (Proteus mirabilis; 96-well plate, 37° C., 10 h): 12.5 µg/mL; MIC against P. aeruginosa (Pseudomonas aeruginosa; 96-well plate, 37° C., 10 h): 12.5 µg/mL; MIC against E. cloacae (Enterobacter cloacae; 96-well plate, 37° C., 10 h): 12.5 µg/mL; MIC against A. hydrophila (Aeromonas hydrophila; 96-well plate, 37° C., 10 h): 25 µg/mL; MIC against K. pneumonia (Klebsiella pneumonia; 96-well plate, 37° C., 10 h): 50 µg/mL; MIC against P. vulgaris (Proteus vulgaris; 96-well plate, 37° C., 10 h): 50 µg/mL; MIC against S. marcescens (Serratia marcescens; 96-well plate, 37° C., 10 h): 12.5 µg/mL; MIC against E. coli BL21 (E. coli BL21; 96-well plate, 37° C., 10 h): 50 µg/mL; MIC against C. diversus (Citrobacter diversus; 96-well plate, 37° C., 10 h): 50 µg/mL"
PRT161 (KVDPCASSPCQNNGTCYVDGVHFTCNCSPGFTGPTCA; listed as Homo sapiens),–,–,–,–,–,–,–,–,–,–,12.5,12.5,25,25,25,50,12.5,50,25,12.5,MIC (μg/mL) C. diversus (Citrobacter diversus; 10 h cultivation at 37° C.): 25 µg/mL
